Drawing on patent US20190152957A1, “PYRIDIN-3-YL ACETIC ACID DERIVATIVES AS INHIBITORS OF HUMAN IMMUNODEFICIENCY VIRUS REPLICATION” (ViiV HEALTHCARE UK (NO.5) LIMITED, priority 2016, published 2019), this text covers EC50 for nine molecules.

Like-named read-outs stand apart in the source and are kept apart here. A value given as a limit tells only on which side of the number the result lay.

In the assay the test system is recombinant NL-RLuc virus (HIV NL4-3 with Renilla Luciferase gene) in MT-2 cells. The experiment in a line: Inhibition of HIV replication (NL-RLuc virus, luciferase readout in MT-2 cells). It counts as cell-based. The settings on record: MT2, 120 h. The text has this:
Inhibition of HIV Replication:
A recombinant NL-RLuc proviral clone was constructed in which a section of the nef gene from NL4-3 was replaced with the Renilla Luciferase gene. This virus is fully infectious and can undergo multiple cycles of replication in cell culture. In addition, the luciferous reporter provides a simple and easy method for quantitating the extent of virus growth and consequently, the antiviral activity of test compounds. The plasmid pNLRLuc contains the proviral NL-Rluc DNA cloned into pUC18 at the PvuII site. The NL-RLuc virus was prepared by transfection of 293T cells with the plasmid pNLRLuc. Transfections were performed using the LipofectAMINE PLUS kit from Invitrogen (Carlsbad, Calif.) according to the manufacturer and the virus generated was titered in MT-2 cells. For susceptibility analyses, the titrated virus was used to infect MT-2 cells in the presence of compound, and after 5 days of incubation, cells were processed and quantitated for virus growth by the amount of expressed luciferase. Assay media was RPMI 1640 supplemented with 10% heat inactivated fetal bovine serum (FBS), 100 units/ml penicillin G/100 units/ml streptomycin, 10 mM HEPES buffer pH 7.55 and 2 mM L-glutamine. The results from at least 2 experiments were used to calculate the EC50 values. Luciferase was quantitated using the Dual Luciferase kit from Promega (Madison, Wis.). Susceptibility of viruses to compounds was determined by incubation in the presence of serial dilutions of the compound. The 50% effective concentration (EC50) was calculated by using the exponential form of the median effect equation where (Fa)=1/[1+(ED50/drug conc.)^m](Johnson V A, Byington R T. Infectivity Assay. In Techniques in HIV Research. ed. Aldovini A, Walker BD. 71-76. New York: Stockton Press. 1990). Activity equal to A refers to a compound having an EC50≤100 nM, while B and C denote compounds having an EC50 between 100 nM and 1 uM (B) or >1 uM (C).

Turning to `Cc1nc(C)c([C@H](OC(C)(C)C)C(=O)O)c(N2CCC(C)(C)CC2)c1-c1ccc2c(c1)CCN(C[C@H]1C[C@H]3C=C[C@@H]1C3)C2` [Compound 6, (S)-2-(5-(2-((1S,2S,4S)-bicyclo[2.2.1]hept-5-en-2-ylmethyl)-1,2,3,4-tetrahydroisoquinolin-6-yl)-4-(4,4-dimethylpiperidin-1-yl)-2,6-dimethylpyridin-3-yl)-2-(tert-butoxy)acetic acid], the EC50 (read-out: Activity) was below 0.1 µM.

For the molecule `COc1ncccc1CN1CCc2cc(-c3c(C)nc(C)c([C@H](OC(C)(C)C)C(=O)O)c3N3CCC(C)(C)CC3)ccc2C1` [Compound 35, (S)-2-(tert-butoxy)-2-(4-(4,4-dimethylpiperidin-1-yl)-5-(2-((2-methoxypyridin-3-yl)methyl)-1,2,3,4-tetrahydroisoquinolin-6-yl)-2,6-dimethylpyridin-3-yl)acetic acid], under “read-out: Activity”, the EC50 was below 0.1 µM. With `Cc1nc(C)c([C@H](OC(C)(C)C)C(=O)O)c(N2CCC(C)(C)CC2)c1-c1ccc2c(c1)CCN(Cc1ccc(=O)[nH]c1)C2` [Compound 52, (S)-2-(tert-butoxy)-2-(4-(4,4-dimethylpiperidin-1-yl)-2,6-dimethyl-5-(2-((6-oxo-1,6-dihydropyridin-3-yl)methyl)-1,2,3,4-tetrahydroisoquinolin-6-yl)pyridin-3-yl)acetic acid], the EC50 (read-out: Activity) was 0.1 to 1 µM. Take `Cc1nc(C)c([C@H](OC(C)(C)C)C(=O)O)c(N2CCC(C)(C)CC2)c1-c1ccc2c(c1)CCN(CC1CCOC(C)(C)C1)C2` (stereo partly drawn) [Compound 3, (2S)-2-(tert-butoxy)-2-(4-(4,4-dimethylpiperidin-1-yl)-5-(2-((2,2-dimethyltetrahydro-2H-pyran-4-yl)methyl)-1,2,3,4-tetrahydroisoquinolin-6-yl)-2,6-dimethylpyridin-3-yl)acetic acid]: the EC50 (read-out: Activity) was below 0.1 µM.

As to `Cc1noc(C)c1CN1CCc2cc(-c3c(C)nc(C)c([C@H](OC(C)(C)C)C(=O)O)c3N3CCC(C)(C)CC3)ccc2C1` [Compound 23, (S)-2-(tert-butoxy)-2-(5-(2-((3,5-dimethylisoxazol-4-yl)methyl)-1,2,3,4-tetrahydroisoquinolin-6-yl)-4-(4,4-dimethylpiperidin-1-yl)-2,6-dimethylpyridin-3-yl)acetic acid], the EC50 (read-out: Activity) was below 0.1 µM. On to `COc1ccc(CN2CCc3cc(-c4c(C)nc(C)c([C@H](OC(C)(C)C)C(=O)O)c4N4CCC(C)(C)CC4)ccc3C2)cn1` [Compound 47, (S)-2-(tert-butoxy)-2-(4-(4,4-dimethylpiperidin-1-yl)-5-(2-((6-methoxypyridin-3-yl)methyl)-1,2,3,4-tetrahydroisoquinolin-6-yl)-2,6-dimethylpyridin-3-yl)acetic acid], for which the EC50 reads like this: (read-out: Activity) below 0.1 µM; (read-out: EC50 μM) 0.002 µM. The like results for `Cc1nc(C)c([C@H](OC(C)(C)C)C(=O)O)c(N2CCC(C)(C)CC2)c1-c1ccc2c(c1)CCN(Cc1ncc[nH]1)C2` [Compound 17, (S)-2-(5-(2-((1H-imidazol-2-yl)methyl)-1,2,3,4-tetrahydroisoquinolin-6-yl)-4-(4,4-dimethylpiperidin-1-yl)-2,6-dimethylpyridin-3-yl)-2-(tert-butoxy)acetic acid] were, in that order, 0.1 to 1 µM and 0.544 µM. Turning to `Cc1nc(C)c([C@H](OC(C)(C)C)C(=O)O)c(N2CCC(C)(C)CC2)c1-c1ccc2c(c1)CCN(Cc1cn[nH]c1)C2` [Compound 50, (S)-2-(5-(2-((1H-pyrazol-4-yl)methyl)-1,2,3,4-tetrahydroisoquinolin-6-yl)-4-(4,4-dimethylpiperidin-1-yl)-2,6-dimethylpyridin-3-yl)-2-(tert-butoxy)acetic acid], the EC50 (read-out: Activity) was below 0.1 µM. Regarding `Cc1nc(C)c([C@H](OC(C)(C)C)C(=O)O)c(N2CCC(C)(C)CC2)c1-c1ccc2c(c1)CCN(Cc1c[nH]cn1)C2` [Compound 40, (S)-2-(5-(2-((1H-imidazol-4-yl)methyl)-1,2,3,4-tetrahydroisoquinolin-6-yl)-4-(4,4-dimethylpiperidin-1-yl)-2,6-dimethylpyridin-3-yl)-2-(tert-butoxy)acetic acid], the EC50 (read-out: Activity) was above 1 µM.
